Test results from patent US20240207444A1, “LIPID NANOPARTICLES CONTAINING POLYNUCLEOTIDES ENCODING PHENYLALANINE HYDROXYLASE AND USES THEREOF” (ModernaTX, Inc., priority 2021, published 2024).

Test: Residual parent lipid levels in the liver of mice
Type: in vivo, CD-1 mice
Details: calculation assumes a 25 g mouse with a 1.5 g liver, >95% equals very slow metabolism of the lipid
Experimental: To assess potency of expression and metabolic stability of lipids of the disclosure, hepatocyte protein expression (hEPO) was measured following administration to mice of a nanoparticle of the disclosure.
Lipid nanoparticles including DSPC as a phospholipid, cholesterol as a structural lipid, Compound I as a PEG lipid, an ionizable amino lipid of Formula (II), and an mRNA encoding hEPO were intravenously administered to CD-1 mice. The concentration of hEPO in serum was tested at 6 hours after injection.

Row | Approx. Percent Total Dose of Parent Lipid Remaining at 24 h | Structure (SMILES)
1 | 9 ± 3% ^ | CCCCCCCC(CCCCCCC)OC(=O)CCCCCCCN(CCCCCCCC(=O)OCCC(CCC)CCC)CCCNc1c(NC)c(=O)c1=O [Compound 63]
2 | 2 ± 0.9% ^ | CCCCC(CCCC)CCOC(=O)CCCCCCCN(CCCCCCCC(=O)OC(CCCC)CCCC)CCCNc1c(NC)c(=O)c1=O [Compound 62]
3 | 0.9 ± 0.06% ^ | CCCCCC(CCCCC)OC(=O)CCCCCCCN(CCCCCCCC(=O)OCCC(CCC)CCC)CCCNc1c(NC)c(=O)c1=O [Compound 65]
4 | <0.1%^ | CCCCCC(CCCCC)CCCOC(=O)CCCCCCCN(CCO)CCCCCCCC(=O)OCCCC(CCCCC)CCCCC [Compound 33]
5 | <0.1%^ | CCCCCCCCC(CCCCCCCC)OC(=O)CCCCCCCN(CCO)CCCCCCCC(=O)OCCCC(CCCCC)CCCCC [Compound 31]
6 | 6 ± 0.8% ^ | CCCCCCC(CCCCCC)OC(=O)CCCCCCCN(CCCCCCCC(=O)OCCC(CCC)CCC)CCCNc1c(NC)c(=O)c1=O [Compound 64]

Further lines, the compound ahead of its results:

Row | Structure (SMILES) | Approx. Percent Total Dose of Parent Lipid Remaining at 24 h
7 | CCCCCCCCC(CCCCCCCC)OC(=O)CCCCCCCN(CCO)CCCCCCCC(=O)OCCC1CCC(CC)CC1 (stereo not shown) [Compound 35] | <0.1%^
8 | CCCCCCC(CCCCCC)OC(=O)CCCCCCCN(CCCCCCCC(=O)OCCC(CCCC)CCCC)CCCNc1c(NC)c(=O)c1=O [Compound 60] | 9 ± 0.8% ^
9 | CCCCCC(CCCCC)OC(=O)CCCCCCCN(CCCCCCCC(=O)OCCC(CCCC)CCCC)CCCNc1c(NC)c(=O)c1=O [Compound 61] | 6 ± 0.3% ^
10 | CCCCCCCCC(CCCCCCCC)OC(=O)CCCCCCCN(CCO)CCCCCCCC(=O)OCCC1CCC(CC)C1 (stereo not shown) [Compound 37] | <0.1%^
